From ChEMBL document CHEMBL4334471, “Discovery of 1,8-disubstituted-[1,2,3]triazolo[4,5-c]quinoline derivatives as a new class of Hippo signaling pathway inhibitors” (Bioorg Med Chem Lett, 2019)

Assays:
[1] = molecular target: cGMP-dependent protein kinase 1 (Homo sapiens) (UniProt Q13976); test: Inhibition of recombinant full-length human PKG1beta assessed as residual activity at 10 uM using RRRLSFAEPG as substrate incubated for 40 mins in presence of [gamma33P]ATP by scintillation counting based radiometry assay relative to control
[2] = molecular target: Transcription initiation factor TFIID subunit 1-like (Homo sapiens) (UniProt Q8IZX4); test: Inhibition of recombinant human TAF1L (1428 to end residues) assessed as residual activity at 10 uM using RRRFRPASPLRGPPK as substrate incubated for 40 mins in presence of [gamma33P]ATP by scintillation counting based radiometry assay relative to control
[3] = molecular target: Serine/threonine-protein kinase 32B (Homo sapiens) (UniProt Q9NY57); test: Inhibition of recombinant human full length STK32B assessed as residual activity at 10 uM using casein as substrate incubated for 40 mins in presence of [gamma33P]ATP by scintillation counting based radiometry assay relative to control
[4] = molecular target: Serine/threonine-protein kinase 17A (Homo sapiens) (UniProt Q9UEE5); test: Inhibition of recombinant human DRAK1 assessed as residual activity at 10 uM using KKLNRTLSFAEPG as substrate at 40 mins in presence of [gamma-33ATP] by scintillation counting based radiometry assay relative to control
[5] = molecular target: Calcium/calmodulin-dependent protein kinase type IV (Homo sapiens) (UniProt Q16566); test: Inhibition of recombinant full length human CaMK4 assessed as residual activity at 10 uM using […] incubated for 40 mins in presence of [gamma-33ATP] by scintillation counting based radiometry assay relative to control
Homo sapiens [6] = organism: Homo sapiens; test: Inhibition of recombinant human full length PI3K p110/p85 assessed as residual activity at 10 uM using phosphatidylinositol-4, 5-bisphosphate as substrate measured after 40 mins by fluorescence assay relative to control
[7] = molecular target: Mitogen-activated protein kinase 13 (Homo sapiens) (UniProt O15264); test: Inhibition of recombinant human full length SAPK4 assessed as residual activity at 10 uM using myelin basic protein as substrate incubated for 40 mins in presence of [gamma33P]ATP by scintillation counting based radiometry assay relative to control
[8] = test system: Ribosomal protein S6 kinase alpha-1 (Rattus norvegicus), Q63531 [S637N,G697A]; test: Inhibition of recombinant full length rat Rsk1 S637N/G697A mutant assessed as residual activity at 10 uM using KKKNRTLSVA as substrate incubated for 40 mins in presence of [gamma33P]ATP by scintillation counting based radiometry assay relative to control
[9] = molecular target: Calcium/calmodulin-dependent protein kinase type II subunit alpha (Homo sapiens) (UniProt Q9UQM7); test: Inhibition of recombinant full length human CaMK2alpha assessed as residual activity at 10 uM using KKLNRTLSFAEPG as substrate incubated for 40 mins in presence of [gamma-33ATP] by scintillation counting based radiometry assay relative to control
[10] = molecular target: Tyrosine-protein kinase TXK (Homo sapiens) (UniProt P42681); test: Inhibition of recombinant human Txk (256 to end residues) assessed as residual activity at 10 uM using GEEPLYWSFPAKKK as substrate incubated for 40 mins in presence of [gamma33P]ATP by scintillation counting based radiometry assay relative to control
[11] = molecular target: MAPK/MAK/MRK overlapping kinase (Homo sapiens) (UniProt Q9UQ07); test: Inhibition of recombinant human MOK (1 to 343 residues) assessed as residual activity at 10 uM using RSRSRSRSRSRSR as substrate incubated for 40 mins in presence of [gamma-33ATP by scintillation counting based radiometry assay relative to control
[12] = molecular target: Serine/threonine-protein kinase tousled-like 1 (Homo sapiens) (UniProt Q9UKI8); test: Inhibition of recombinant full-length human TLK1 assessed as residual activity at 10 uM using casein as substrate incubated for 40 mins in presence of [gamma33P]ATP by scintillation counting based radiometry assay relative to control
[13] = molecular target: Serine/threonine-protein kinase B-raf (Homo sapiens) (UniProt P15056); test: Inhibition of recombinant full length human B-Raf (416 to end residues) assessed as residual activity at 10 uM using myelin basic protein substrate incubated for 40 mins in presence of [gamma-33ATP] by scintillation counting based radiometry assay relative to control
[14] = molecular target: Serine/threonine-protein kinase 3 (Homo sapiens) (UniProt Q13188); test: Inhibition of recombinant human MST2 (2 to end residues) assessed as residual activity at 10 uM using myelin basic protein as substrate measured after 40 mins in presence of [gamma33P]ATP by scintillation counting based radiometry assay relative to control
[15] = molecular target: Serine/threonine-protein kinase SIK1 (Homo sapiens) (UniProt P57059); test: Inhibition of recombinant human SIK (1 to 281 residues) assessed as residual activity at 10 uM using AMARAASAAALARRR as substrate incubated for 40 mins in presence of [gamma33P]ATP by scintillation counting based radiometry assay relative to control
Mus musculus = organism: Mus musculus; test: Inhibition of recombinant full length mouse PI3K p110/p85 assessed as residual activity at 10 uM using phosphatidylinositol-4, 5-bisphosphate as substrate incubated for 40 mins in presence of [gamma33P]ATP by scintillation counting based radiometry assay relative to control
[16] = molecular target: LIM domain kinase 1 (Homo sapiens) (UniProt P53667); test: Inhibition of recombinant human LIMK1 (285 to 638 residues) assessed as residual activity at 10 uM using cofilin as substrate after 40 mins in presence of [gamma-33ATP] by scintillation counting based radiometry assay relative to control
Homo sapiens [17] = organism: Homo sapiens; test: Inhibition of recombinant human EphB2 A848S/K918E mutant (560 to end residues) assessed as residual activity at 10 uM using KTFCGTPEYLAPEVRREPRILSEEEQEMFRDFDYIADWC as substrate at 40 mins in presence of [gamma-33ATP] by scintillation counting based radiometry assay relative to control
[18] = molecular target: Casein kinase I isoform gamma-2 (Homo sapiens) (UniProt P78368); test: Inhibition of recombinant human CK1gamma2 (18 to end residues) assessed as residual activity at 10 uM using KRRRALS(p)VASLPGL as substrate incubated for 40 mins in presence of [gamma-33ATP] by scintillation counting based radiometry assay relative to control
Homo sapiens [19] = organism: Homo sapiens; test: Inhibition of human MAPK2 assessed as residual activity at 10 uM relative to control
[20] = molecular target: Bone morphogenetic protein receptor type-2 (Homo sapiens) (UniProt Q13873); test: Inhibition of recombinant human BMPR2 (172 to 734 residues) assessed as residual activity at 10 uM using myelin basic protein as substrate incubated for 120 mins in presence of [gamma-33ATP] by scintillation counting based radiometry assay relative to control
[21] = molecular target: Interleukin-1 receptor-associated kinase 1 (Homo sapiens) (UniProt P51617); test: Inhibition of human IRAK1 (194 to end residues) assessed as residual activity at 10 uM using myelin basic protein as substrate after 40 mins by [gamma-33ATP] radiometric assay relative to control

Serine/threonine-protein kinase 3 (Homo sapiens), sequence (Q13188 whole entry, the tested form may be a part): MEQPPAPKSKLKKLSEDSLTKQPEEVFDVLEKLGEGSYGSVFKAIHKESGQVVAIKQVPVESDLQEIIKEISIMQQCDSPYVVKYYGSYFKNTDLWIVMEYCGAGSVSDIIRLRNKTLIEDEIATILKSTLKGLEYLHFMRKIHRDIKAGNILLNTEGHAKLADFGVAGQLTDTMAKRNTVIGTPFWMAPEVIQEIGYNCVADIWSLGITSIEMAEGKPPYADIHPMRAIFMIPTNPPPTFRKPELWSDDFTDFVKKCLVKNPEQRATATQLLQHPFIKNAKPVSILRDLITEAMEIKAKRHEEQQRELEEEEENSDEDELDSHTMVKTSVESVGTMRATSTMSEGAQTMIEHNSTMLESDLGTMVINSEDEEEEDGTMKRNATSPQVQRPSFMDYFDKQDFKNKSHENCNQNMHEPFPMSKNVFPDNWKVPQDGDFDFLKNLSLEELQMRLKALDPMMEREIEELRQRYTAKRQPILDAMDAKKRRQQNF
Transcription initiation factor TFIID subunit 1-like (Homo sapiens), sequence (Q8IZX4 whole entry): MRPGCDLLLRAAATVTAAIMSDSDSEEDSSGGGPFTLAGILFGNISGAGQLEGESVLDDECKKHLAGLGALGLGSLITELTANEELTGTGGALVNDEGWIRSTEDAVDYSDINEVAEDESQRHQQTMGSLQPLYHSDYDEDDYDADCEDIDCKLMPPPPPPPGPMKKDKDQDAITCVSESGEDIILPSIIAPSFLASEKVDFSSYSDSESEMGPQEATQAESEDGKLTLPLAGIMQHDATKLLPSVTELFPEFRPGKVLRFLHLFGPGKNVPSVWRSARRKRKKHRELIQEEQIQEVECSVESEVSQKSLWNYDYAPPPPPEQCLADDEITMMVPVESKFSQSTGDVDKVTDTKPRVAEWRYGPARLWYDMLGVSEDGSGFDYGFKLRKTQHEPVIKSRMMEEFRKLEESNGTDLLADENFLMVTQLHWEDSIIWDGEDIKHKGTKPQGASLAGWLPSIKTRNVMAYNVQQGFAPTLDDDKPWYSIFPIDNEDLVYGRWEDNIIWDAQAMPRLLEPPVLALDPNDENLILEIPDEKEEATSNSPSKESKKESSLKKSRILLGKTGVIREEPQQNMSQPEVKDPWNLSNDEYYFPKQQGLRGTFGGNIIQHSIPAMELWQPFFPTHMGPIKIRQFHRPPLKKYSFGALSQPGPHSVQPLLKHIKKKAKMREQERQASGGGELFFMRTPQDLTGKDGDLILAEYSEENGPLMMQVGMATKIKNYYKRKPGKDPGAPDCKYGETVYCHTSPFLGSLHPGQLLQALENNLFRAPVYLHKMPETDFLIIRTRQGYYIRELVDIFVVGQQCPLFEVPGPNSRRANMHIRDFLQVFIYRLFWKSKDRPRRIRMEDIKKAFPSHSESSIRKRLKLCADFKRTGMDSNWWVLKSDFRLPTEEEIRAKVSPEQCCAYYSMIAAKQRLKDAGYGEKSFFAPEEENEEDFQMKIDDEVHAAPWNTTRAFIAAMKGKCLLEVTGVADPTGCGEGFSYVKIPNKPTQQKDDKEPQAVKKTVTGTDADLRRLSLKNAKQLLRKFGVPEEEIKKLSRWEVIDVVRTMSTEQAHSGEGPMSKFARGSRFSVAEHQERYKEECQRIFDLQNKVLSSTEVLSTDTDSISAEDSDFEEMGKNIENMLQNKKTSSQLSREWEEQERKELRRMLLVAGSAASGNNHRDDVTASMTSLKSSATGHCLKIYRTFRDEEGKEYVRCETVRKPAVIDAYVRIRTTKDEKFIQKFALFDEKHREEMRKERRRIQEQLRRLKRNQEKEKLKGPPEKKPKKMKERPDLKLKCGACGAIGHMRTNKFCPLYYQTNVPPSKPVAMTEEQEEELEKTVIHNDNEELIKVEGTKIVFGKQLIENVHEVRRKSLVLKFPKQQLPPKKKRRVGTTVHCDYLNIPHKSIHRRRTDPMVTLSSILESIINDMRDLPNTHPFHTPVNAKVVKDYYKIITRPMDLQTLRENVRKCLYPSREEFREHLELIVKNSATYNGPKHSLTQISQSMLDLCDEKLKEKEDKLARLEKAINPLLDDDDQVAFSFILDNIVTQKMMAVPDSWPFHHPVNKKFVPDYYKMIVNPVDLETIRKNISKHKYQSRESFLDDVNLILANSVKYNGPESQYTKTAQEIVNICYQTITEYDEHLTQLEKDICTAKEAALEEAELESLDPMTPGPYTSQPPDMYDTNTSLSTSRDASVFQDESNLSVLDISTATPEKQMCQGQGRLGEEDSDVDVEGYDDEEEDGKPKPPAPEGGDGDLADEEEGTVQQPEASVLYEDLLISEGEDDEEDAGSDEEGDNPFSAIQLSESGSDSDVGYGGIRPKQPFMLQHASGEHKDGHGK
cGMP-dependent protein kinase 1 (Homo sapiens), sequence (Q13976 whole entry): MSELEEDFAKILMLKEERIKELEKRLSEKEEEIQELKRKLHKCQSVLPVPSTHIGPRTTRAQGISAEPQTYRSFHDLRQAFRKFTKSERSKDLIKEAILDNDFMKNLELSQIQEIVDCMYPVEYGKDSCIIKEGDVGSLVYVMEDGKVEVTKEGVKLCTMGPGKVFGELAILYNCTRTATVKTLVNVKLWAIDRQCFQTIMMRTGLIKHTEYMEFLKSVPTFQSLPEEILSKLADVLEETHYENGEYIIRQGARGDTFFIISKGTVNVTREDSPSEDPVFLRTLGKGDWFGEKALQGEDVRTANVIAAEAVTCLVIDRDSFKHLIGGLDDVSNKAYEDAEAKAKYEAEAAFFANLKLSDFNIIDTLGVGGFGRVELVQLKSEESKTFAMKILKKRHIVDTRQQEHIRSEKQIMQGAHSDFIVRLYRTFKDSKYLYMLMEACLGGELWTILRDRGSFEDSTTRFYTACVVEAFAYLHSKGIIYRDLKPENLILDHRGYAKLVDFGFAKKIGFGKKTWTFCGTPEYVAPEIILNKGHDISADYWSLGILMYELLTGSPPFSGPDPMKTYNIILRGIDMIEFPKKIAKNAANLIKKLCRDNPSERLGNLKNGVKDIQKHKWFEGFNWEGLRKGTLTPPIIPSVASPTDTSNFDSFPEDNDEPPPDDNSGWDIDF
Ribosomal protein S6 kinase alpha-1 (Rattus norvegicus), Q63531 [S637N,G697A], sequence (Q63531 whole entry S637N/G697A): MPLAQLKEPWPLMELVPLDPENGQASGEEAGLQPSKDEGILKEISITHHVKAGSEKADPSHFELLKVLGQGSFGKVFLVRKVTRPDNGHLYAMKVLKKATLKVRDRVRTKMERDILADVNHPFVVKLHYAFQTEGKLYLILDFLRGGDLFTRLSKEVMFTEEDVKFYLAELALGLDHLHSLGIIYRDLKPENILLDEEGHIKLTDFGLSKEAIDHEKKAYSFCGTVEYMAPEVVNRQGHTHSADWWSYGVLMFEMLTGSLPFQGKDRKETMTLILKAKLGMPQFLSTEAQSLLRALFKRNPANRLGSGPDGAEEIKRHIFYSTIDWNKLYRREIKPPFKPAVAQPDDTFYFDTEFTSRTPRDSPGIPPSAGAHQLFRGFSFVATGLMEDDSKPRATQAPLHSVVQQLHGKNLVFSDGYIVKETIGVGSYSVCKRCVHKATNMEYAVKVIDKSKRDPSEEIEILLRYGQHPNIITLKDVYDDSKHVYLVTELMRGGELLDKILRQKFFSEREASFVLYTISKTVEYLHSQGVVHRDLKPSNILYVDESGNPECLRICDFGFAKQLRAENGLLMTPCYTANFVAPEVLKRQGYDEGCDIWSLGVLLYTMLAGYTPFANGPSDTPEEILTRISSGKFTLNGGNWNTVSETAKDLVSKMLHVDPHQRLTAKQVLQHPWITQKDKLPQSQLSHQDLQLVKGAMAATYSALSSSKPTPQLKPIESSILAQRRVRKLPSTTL
Serine/threonine-protein kinase 32B (Homo sapiens), sequence (Q9NY57 whole entry): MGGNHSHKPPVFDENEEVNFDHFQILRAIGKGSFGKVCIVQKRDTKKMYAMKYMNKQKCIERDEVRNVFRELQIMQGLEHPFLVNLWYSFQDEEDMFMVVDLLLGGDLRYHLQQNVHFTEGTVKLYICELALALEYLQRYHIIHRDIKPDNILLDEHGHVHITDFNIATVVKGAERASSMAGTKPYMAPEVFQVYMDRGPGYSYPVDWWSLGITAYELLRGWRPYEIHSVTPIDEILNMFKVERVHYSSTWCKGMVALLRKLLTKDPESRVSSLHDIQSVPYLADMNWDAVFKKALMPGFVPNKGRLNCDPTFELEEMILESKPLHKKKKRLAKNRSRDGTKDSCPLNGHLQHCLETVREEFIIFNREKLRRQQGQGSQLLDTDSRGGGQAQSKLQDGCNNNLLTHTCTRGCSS
Tyrosine-protein kinase TXK (Homo sapiens), sequence (P42681 whole entry, the tested form may be a part): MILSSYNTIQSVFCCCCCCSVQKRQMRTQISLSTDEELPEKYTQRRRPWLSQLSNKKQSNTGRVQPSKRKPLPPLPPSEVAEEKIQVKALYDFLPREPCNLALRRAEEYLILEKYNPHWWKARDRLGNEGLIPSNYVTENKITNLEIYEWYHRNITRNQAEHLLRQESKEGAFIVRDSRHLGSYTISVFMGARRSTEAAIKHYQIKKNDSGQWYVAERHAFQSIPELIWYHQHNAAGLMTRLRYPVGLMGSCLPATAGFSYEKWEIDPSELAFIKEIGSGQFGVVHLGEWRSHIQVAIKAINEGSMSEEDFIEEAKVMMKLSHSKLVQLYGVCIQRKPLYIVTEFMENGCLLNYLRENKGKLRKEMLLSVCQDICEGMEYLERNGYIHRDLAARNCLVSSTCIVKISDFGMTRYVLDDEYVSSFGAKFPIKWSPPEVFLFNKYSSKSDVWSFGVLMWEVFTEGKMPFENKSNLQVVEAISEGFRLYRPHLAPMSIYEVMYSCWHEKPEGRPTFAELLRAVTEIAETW
Serine/threonine-protein kinase 17A (Homo sapiens), sequence (Q9UEE5 whole entry): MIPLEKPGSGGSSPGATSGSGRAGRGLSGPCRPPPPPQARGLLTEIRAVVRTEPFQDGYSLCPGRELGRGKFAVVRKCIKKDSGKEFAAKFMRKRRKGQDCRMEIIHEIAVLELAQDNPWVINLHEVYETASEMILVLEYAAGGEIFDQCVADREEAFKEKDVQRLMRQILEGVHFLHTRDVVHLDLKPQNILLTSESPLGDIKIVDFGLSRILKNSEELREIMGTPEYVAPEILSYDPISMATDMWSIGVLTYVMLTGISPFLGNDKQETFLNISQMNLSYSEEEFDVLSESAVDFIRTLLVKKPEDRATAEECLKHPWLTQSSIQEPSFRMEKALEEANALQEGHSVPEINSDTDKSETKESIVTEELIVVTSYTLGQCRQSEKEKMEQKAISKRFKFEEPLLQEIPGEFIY

C[C@@H](c1ccccc1)n1nnc2cnc3ccc(-c4cnc5[nH]ccc5c4)cc3c21
Activity [1]: 66%
Activity [2]: 85%
Activity [3]: 88%
Activity [4]: 60%
Activity [5]: 39%
Activity (Homo sapiens [6]): 3 to 9%
Activity [7]: 97%
Activity [8]: 71%
Activity [9]: 50%
Activity [10]: 23%
Activity [11]: 99%
Activity [12]: 99%
Activity [13]: 73%
Activity [14]: 57%
Activity [15]: 8%
Activity (Mus musculus): 4 to 12%
Activity [16]: 95%
Activity (Homo sapiens [17]): 83%
Activity [18]: 73%
Activity (Homo sapiens [19]): 93%
Activity [20]: 80%
Activity [21]: 84%
